Results published in publication PMC10541190 (The Journal of Clinical Investigation, 2023).
Values joined by “and” are separate entries in the source; they are usually repeats but may differ in a detail not shown here. Identical values can stand only once.

Legend:
[1] = system: SARS-CoV-2 (Belgium-GHB-03021); format: cell-based
[2] = system: DENV2; assay: microbe, parasite or virus in culture; format: cell-based; conditions: Dengue virus, DENV2, Huh-7, read-out: EC50, DENV2 replication
[3] = system: DENV2; format: cell-based
[4] = target: ErbB2 (HER2) (Homo sapiens, UniProt P04626); assay: biochemical; conditions: read-out: ErbB2 activity (%)
[5] = target: ErbB2 (Homo sapiens, UniProt P04626); format: cell-based
[6] = system: AKT, ERK, and p38 MAPK; format: cell-based, human
[7] = system: ErbB4; format: cell-based
[8] = in vitro; conditions: human, Huh7 cell viability (%)
[9] = system: STK10; conditions: cited from earlier work
[10] = system: RIPK2; conditions: cited from earlier work
[11] = system: SLK; conditions: cited from earlier work

ErbB2 (HER2), sequence (P04626 23-1255): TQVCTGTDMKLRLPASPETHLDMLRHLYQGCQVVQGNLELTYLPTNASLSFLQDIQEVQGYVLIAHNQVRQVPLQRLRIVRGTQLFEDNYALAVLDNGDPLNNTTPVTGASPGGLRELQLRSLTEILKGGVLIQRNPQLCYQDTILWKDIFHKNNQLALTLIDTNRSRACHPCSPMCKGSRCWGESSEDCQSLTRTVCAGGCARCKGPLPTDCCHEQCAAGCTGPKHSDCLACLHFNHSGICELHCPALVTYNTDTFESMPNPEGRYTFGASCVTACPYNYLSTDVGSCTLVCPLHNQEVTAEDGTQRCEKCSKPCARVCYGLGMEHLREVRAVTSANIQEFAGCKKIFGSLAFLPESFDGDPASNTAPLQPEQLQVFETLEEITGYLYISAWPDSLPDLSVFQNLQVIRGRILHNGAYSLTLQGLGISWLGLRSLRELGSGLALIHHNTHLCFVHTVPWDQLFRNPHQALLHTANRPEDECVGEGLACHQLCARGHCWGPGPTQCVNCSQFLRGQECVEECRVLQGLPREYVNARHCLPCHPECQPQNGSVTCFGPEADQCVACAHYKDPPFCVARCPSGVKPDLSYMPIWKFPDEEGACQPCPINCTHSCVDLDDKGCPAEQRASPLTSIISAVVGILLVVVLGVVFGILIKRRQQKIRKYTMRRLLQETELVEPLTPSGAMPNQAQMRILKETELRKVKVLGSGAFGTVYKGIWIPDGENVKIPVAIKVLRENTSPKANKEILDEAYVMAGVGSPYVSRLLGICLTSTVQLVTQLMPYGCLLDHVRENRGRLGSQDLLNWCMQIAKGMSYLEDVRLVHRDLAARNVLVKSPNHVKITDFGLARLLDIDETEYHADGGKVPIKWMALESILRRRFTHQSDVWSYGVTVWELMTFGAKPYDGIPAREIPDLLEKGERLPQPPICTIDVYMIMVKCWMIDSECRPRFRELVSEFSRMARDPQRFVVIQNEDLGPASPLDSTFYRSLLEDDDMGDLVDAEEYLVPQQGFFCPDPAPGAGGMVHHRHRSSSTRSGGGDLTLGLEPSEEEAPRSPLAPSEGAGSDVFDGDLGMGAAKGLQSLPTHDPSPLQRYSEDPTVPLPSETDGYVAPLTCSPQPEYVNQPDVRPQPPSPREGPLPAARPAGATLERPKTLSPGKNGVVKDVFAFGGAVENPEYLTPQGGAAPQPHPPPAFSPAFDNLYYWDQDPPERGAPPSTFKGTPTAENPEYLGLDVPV
ErbB2, sequence (P04626 23-1255): as above

For `CS(=O)(=O)CCNCc1ccc(-c2ccc3ncnc(Nc4ccc(OCc5cccc(F)c5)c(Cl)c4)c3c2)o1` [Lapatinib], the “rescue of Vero-eGFP cells from SARS-CoV-2-induced lethality, dose response” value [1] was “dose-dependent rescue”, the EC50 [2] was 2000 nM and the “replication of DENV2” value [3] was “dose-dependently inhibited replication”. For the same compound, the activity at 0.001 µM [4] was 91.6%, the activity at 0.003 µM [4] was 84.5% and the activity at 0.009 µM [4] was 64%. For the same compound, the activity at 0.247 µM [4] was 14%, the activity at 2.222 µM [4] was 3.4% and the activity at 6.667 µM [4] was 2.28%. The activity at 20 µM [4] was 2%, the activity at […] [4] was 27.2% and 45.3% and 6.63% and the “increase in cell surface level of ErbB2” value [5] was “more than 2 fold”. For the same compound, the “SARS-CoV-2-induced activation of AKT and ERK (1.5 and 24 hpi) and p38 MAPK (24 hpi)” value [6] was “dramatically inhibited”, the “antiviral effect on VEEV (TC-83) upon ectopic expression of WT ErbB4” value [7] was “completely or partially reversed” and the viability at 0.37 µM [8] was 103%. For the same compound, the viability at 3.333 µM [8] was 105%, the “Other targets: STK10 (% of control)” value [9] was “RAF1 (0%), STK10 (1.4%), RIPK2 (6.1%), MAP2K5 (12%), SLK (18%)” and the “Other targets: RIPK2 (% of control)” value [10] was “RAF1 (0%), STK10 (1.4%), RIPK2 (6.1%), MAP2K5 (12%), SLK (18%)”. The “Other targets: SLK (% of control)” value [11] was “RAF1 (0%), STK10 (1.4%), RIPK2 (6.1%), MAP2K5 (12%), SLK (18%)”.
